Reference: patent US20220288065A1, “MONOCYCLIC AGONISTS OF STIMULATOR OF INTERFERON GENES STING” (The Scripps Research Institute, priority 2019, published 2022)
pEC50: −log10 of the molar value.

test system: THP-1 Lucia ISG cells; assay: ISG-LUC activation assay (ISRE-luciferase assay); type: cell-based; conditions: Homo sapiens, THP1-Lucia ISG, activity score based upon potency and efficacy data, 24 hours
Excerpt: We have established a robust platform for identifying non-nucleotide small molecule STING agonists. This has been established using a primary assay involving a human THP-1 cell line carrying an IRF-inducible reporter with 5 copies of the IFN signaling response element. Counter screens, involving alternative reporter constructs, rodent cell-based assays, as well as cGAS and STING knock-out cell lines, are used to eliminate luciferase artifacts and ensure human-rodent cross species reactivity, as well as pathway selectivity. Biochemical assays, involving cGAS enzymatic activity and STING protein binding assays, are used to identify the specific target of identified hits.
Tissue culture. Wild-type (cat. no. thpl-isg) and STING KO (cat. no. thpd-kostg) THP-1-Lucia ISG cells were purchased from Invivogen and maintained in growth media consisting of RPMI 1640, 2 mM L-glutamine, 25 mM HEPES, 10% heat-inactivated fetal bovine serum (FBS), 1,000 units/ml penicillin, 1,000 μg/ml streptomycin, 0.25 μg/ml Amphotericin B, and 100 μg/ml zeocin unless otherwise stated.
ISRE-luciferase assay. THP-1 Lucia ISG cells were resuspended in low-serum growth media (2% FBS) at a density of 5×10^5 cells/ml and treated with test article or vehicle (DMSO). 50 μL of cells were seeded into each well of a 384-well white greiner plates and incubated for 24 hours. To evaluate expression of the luciferase reporter, 30 μl of Quanti-luc (Invivogen) detection reagent was added to each well and luminescence was read using an Envision plate reader (Perkin Elmer) set with an integration time of 0.1 seconds.

Row | Structure (SMILES) | pEC50
1 | C#Cc1cc(NC(=O)c2ccc(-c3ccncc3)nn2)c(C(=O)O)cc1Cl [Compound 78] | > 6.05
2 | C#Cc1cc(NC(=O)c2ccc(-n3ccnc3)nn2)c(C(=O)O)cc1F [Compound 79] | > 6.05
3 | C#Cc1cc2nc(-c3ccc(-n4ccnc4)nn3)oc(=O)c2cc1Cl [Compound 80] | > 6.05
4 | C#Cc1cc(NC(=O)c2ccc(-n3ccnc3)nn2)c(C(=O)O)cc1Cl [Compound 81] | > 6.05
5 | O=C(Nc1cc(Cl)c(Cl)nc1C(=O)O)c1ccc(-n2ccnc2)nn1 [Compound 82] | > 6.05
6 | C#Cc1cc(NC(=O)c2ccc(-c3cn[nH]c3)nn2)c(-c2c(O)c(=O)c2=O)cc1F [Compound 83] | > 6.05
7 | C#Cc1cc(NC(=O)c2ccc(-c3cn[nH]c3)nn2)c(-c2nn[nH]n2)cc1F [Compound 84] | < 6.00
8 | C#Cc1cc(NC(=O)c2ccc(-n3ccnc3)nn2)c(C(=O)OCC)cc1F [Compound 85] | > 6.05
9 | C#Cc1cc(NC(=O)c2ccc(-n3ccnc3)nn2)c(C(=O)OC(C)OC(=O)OCC)cc1F (stereo not shown) [Compound 86] | > 6.05
10 | CC#Cc1cc(NC(=O)c2ccc(-n3ccnc3)nn2)c(C(=O)O)cc1F [Compound 87] | > 6.05
11 | C=Cc1cc(NC(=O)c2ccc(-n3ccnc3)nn2)c(C(=O)O)cc1F [Compound 88] | > 6.05
12 | C/C=C/c1cc(NC(=O)c2ccc(-n3ccnc3)nn2)c(C(=O)O)cc1F [Compound 89] | > 6.05
13 | C#Cc1cc(NC(=O)c2ccc(-n3ccnc3)nn2)c(C(=O)O)nc1C [Compound 90] | > 5.52
14 | Cc1nc(C(=O)O)c(NC(=O)c2ccc(-n3ccnc3)nn2)cc1Cl [Compound 91] | < 6.00
15 | C#Cc1cc(NC(=O)c2ccc(-n3ccnc3)nn2)c(C(=O)O)nc1F [Compound 92] | > 6.05
16 | C#Cc1cc2nc(-c3ccc(-n4ccnc4)nn3)oc(=O)c2nc1Cl [Compound 93] | > 5.52
17 | C#Cc1cc(NC(=O)c2ccc(-n3ccnc3)nn2)c(C(=O)OC(OC(=O)C(C)C)C(C)C)cc1F (stereo not shown) [Compound 94] | > 6.05
18 | CC#Cc1cc(NC(=O)c2ccc(-n3ccnc3)nn2)c(C(=O)OCC)nc1Cl [Compound 95] | > 6.05
19 | C#Cc1cc(NC(=O)c2ccc(-n3ccnc3)nn2)c(C(=O)OC(C)C)cc1F [Compound 96] | < 6.00
20 | C#Cc1cc(NC(=O)c2ccc(-n3ccnc3)nn2)c(C(=O)OC(C)C)nc1Cl [Compound 97] | > 6.05
21 | C#Cc1cc(NC(=O)c2ccc(-n3ccnc3)nn2)c(C(=O)OCCN2CCOCC2)nc1Cl [Compound 98] | > 6.05
22 | N#Cc1cc(C(=O)O)c(NC(=O)c2ccc(-n3ccnc3)nn2)cc1Cl [Compound 99] | > 5.52

More lines, now with the values ahead:

Row | pEC50 | Structure (SMILES)
23 | > 5.52 | C#Cc1cc(NC(=O)c2ccc(-n3ccnc3)nn2)c(C(=O)O)cc1C#N [Compound 100]
24 | > 6.05 | C/C=C/c1cc(NC(=O)c2ccc(-n3ccnc3)nn2)c(C(=O)O)nc1Cl [Compound 101]
25 | > 6.05 | C#Cc1cc(NC(=O)c2ccc(-n3ccnc3)nn2)c(C(=O)OC(C)OC(=O)OCC)nc1Cl (stereo not shown) [Compound 102]
26 | > 6.05 | C#Cc1cc(NC(=O)c2ccc(-n3ccnc3)nn2)c(C(=O)OCCN2CCOCC2)cc1F [Compound 103]
27 | > 6.05 | CC#Cc1cc(NC(=O)c2ccc(-n3ccnc3)nn2)c(C(=O)O)nc1Cl [Compound 104]
28 | < 6.00 | C#Cc1cc(NC(=O)c2ccc(-n3ccnc3)nn2)c(C(=O)NCCO)nc1Cl [Compound 105]
29 | < 4.70 | C#Cc1cc(NC(=O)c2ccc(-n3ccnc3)nn2)c(C(=O)NCCO)cc1F [Compound 106]
30 | > 6.05 | C#Cc1cc(NC(=O)c2ccc(-n3ccnc3)nn2)c(C(=O)OC)nc1C#N [Compound 107]
31 | < 4.70 | C#Cc1cc(NC(=O)c2ncc(-c3cn[nH]c3)cn2)c(C(=O)O)cc1F [Compound 108]
